Values quoted from earlier work as cited in paper PMC6453670 (International Journal for Parasitology: Drugs and Drug …, 2019).

Experiments:
[1] = test system: Neospora; conditions: longer treatment duration; ref Ojo et al., 2014; Winzer et al., 2015
[2] = test system: Toxoplasma; conditions: longer treatment duration; ref Winzer et al., 2015

CCOc1ccc2cc(-c3nn(CC4CCN(C)CC4)c4ncnc(N)c34)ccc2c1 [BKI 1294]
Dose at which morphological alterations were seen in vitro [1]: 2.5 μM | Dose at which morphological alterations were seen in vitro [2]: 2.5 μM
